Measurements from patent publication US10005808B2, “Crystal of alkali metal N-acetylneuraminate anhydrate, and process for producing same” (KYOWA HAKKO BIO CO., LTD., priority 2014, dated 2018).

How the values were obtained:
[1] = Weight change (moisture absorption) under an atmosphere of 25° C. and humidity 66%; type: physicochemical; conditions: humidity 66%; for weight increase due to moisture absorption (in words): up to 24 hours
Method: With respect to the crystal of NeuAc sodium salt anhydrate and the noncrystalline amorphous of NeuAc sodium salt acquired in Reference Example 1, the weight change under an atmosphere of 25° C. and humidity 66% was compared, and the results are shown in Table 3.
With respect to the crystal of NeuAc potassium salt anhydrate and the noncrystalline amorphous of NeuAc potassium salt acquired in Reference Example 2, the weight change under an atmosphere of 25° C. and humidity 66% was compared, and the results are shown in Table 10.

[2] = normal temperature / storage; cited from earlier work
[3] = Measurement of degree of solubility in water (HPLC of supernatant); type: physicochemical; conditions: various temperatures, FIG. 5 / FIG. 10, result in words
Method: (2) Measurement of Degree of Solubility
A crystal of NeuAc sodium salt anhydrate, a crystal of NeuAc potassium salt anhydrate, or a crystal of known NeuAc dihydrate was added to water adjusted to respective temperatures until each crystal was caused to remain undissolved and after keeping the solution for a sufficient time under stirring, the supernatant containing no crystal was collected and measured for the concentration by using the following HPLC analysis conditions.
Guard column: Shodex SUGAR SH-G ϕ6.0×50 mm
Column: SUGAR SH1011 ϕ8.0×300 mm×2 columns in series
Column temperature: 60° C.
Buffer: an aqueous 0.005 mol/L sulfuric acid solution
Flow velocity: 0.6 mL/min
Detector: UV detector (wavelength: 210 nm)
The degrees of solubility in water of the crystal of NeuAc sodium salt anhydrate obtained above and a crystal of NeuAc dihydrate are illustrated in FIG. 5.
The degrees of solubility in water of the crystal of NeuAc potassium salt anhydrate obtained above and a crystal of NeuAc dihydrate are illustrated in FIG. 10.

[4] = Degree of coloration when stored in a closed system at 60° C. (transmittance T% 430 nm); type: physicochemical
Method: (§1) With respect to the crystal of NeuAc sodium salt anhydrate and a crystal of known NeuAc dihydrate, the degree of coloration when stored in a closed system at 60° C. was compared, and the results are shown in Table 7. The degree of coloration is expressed by transmittance T % 430 nm=100×10^−A (A=Abs: 430 nm, 1 cm).
as §1, with “potassium” for “sodium”, “14.” for “7.”

[5] = pH of aqueous solution of the crystal at 100 g/L; type: physicochemical
Method: As for the pH, an aqueous solution at 100 g/L in terms of NeuAc sodium salt was measured.
As for the pH, an aqueous solution at 100 g/L in terms of NeuAc potassium salt was measured.

[6] = normal temperature; cited from earlier work

Compound	degree of solubility in water compared with crystal of known NeuAc dihydrate [3]	coloration during storage compared with crystal of known NeuAc dihydrate (in words) [4]	Transmittance T % 430 nm ([4]; elapsed time 0 days, Table 14) [%]	Transmittance T % 430 nm ([4]; elapsed time 3 days, Table 14) [%]	Transmittance T % 430 nm ([4]; elapsed time 6 days, Table 14) [%]	Transmittance T % 430 nm ([4]; elapsed time 0 days, Table 7) [%]	Transmittance T % 430 nm ([4]; elapsed time 3 days, Table 7) [%]	Transmittance T % 430 nm ([4]; elapsed time 6 days, Table 7) [%]	storage stability (in words) [2]	also measured
CC(=O)N[C@H]1[C@H]([C@H](O)[C@H](O)CO)O[C@](O)(C(=O)[O-])C[C@@H]1O.[Na+] [Reference Example 1, NeuAc sodium salt, reference compound]										weight increase due to moisture absorption (in words) ([1]; listed as noncrystalline amorphous of NeuAc sodium salt, sodium salt): marked weight increase due to moisture absorption and deliquesced when 24 hours had passed
CC(=O)N[C@H]1[C@H]([C@H](O)[C@H](O)CO)OC(O)(C(=O)[O-])C[C@@H]1O.O.O.O.[Na+] (some centres unmarked) [NeuAc sodium salt trihydrate]									high storage stability at normal temperature	
CC(=O)N[C@H]1[C@H]([C@H](O)[C@H](O)CO)OC(O)(C(=O)[O-])C[C@@H]1O.[K+] (some centres unmarked) [Reference Example 2, NeuAc potassium salt, reference compound]										weight increase due to moisture absorption (in words) ([1]; listed as noncrystalline amorphous of NeuAc potassium salt, potassium salt): marked weight increase due to moisture absorption and deliquesced when 24 hours had passed

More lines, main results first:

degree of solubility in water compared with crystal of known NeuAc dihydrate [3]	coloration during storage compared with crystal of known NeuAc dihydrate (in words) [4]	Transmittance T % 430 nm ([4]; elapsed time 0 days, Table 14) [%]	Transmittance T % 430 nm ([4]; elapsed time 3 days, Table 14) [%]	Transmittance T % 430 nm ([4]; elapsed time 6 days, Table 14) [%]	Transmittance T % 430 nm ([4]; elapsed time 0 days, Table 7) [%]	Transmittance T % 430 nm ([4]; elapsed time 3 days, Table 7) [%]	Transmittance T % 430 nm ([4]; elapsed time 6 days, Table 7) [%]	Compound	storage stability (in words) [2]	also measured
excellent solubility	extremely low	99.90	99.73	99.63				CC(=O)N[C@H]1[C@H]([C@H](O)[C@H](O)CO)OC(O)(C(=O)[O-])C[C@@H]1O.[K+] (some centres unmarked) [Crystal of potassium salt, NeuAc potassium salt anhydrate]		Rate of Weight Change ([1]; elapsed time 0 h, Table 10): 0.00%; Rate of Weight Change ([1]; elapsed time 3 h, Table 10): 0.06%; Rate of Weight Change ([1]; elapsed time 7 h, Table 10): 0.00%; Rate of Weight Change ([1]; elapsed time 24 h, Table 10): −0.06%; weight increase due to moisture absorption (in words) ([1]; listed as crystal of NeuAc potassium salt anhydrate): a weight increase was not recognized; pH ([5]; aqueous solution at 100 g/L in terms of NeuAc potassium salt, listed as Example 4): 6.6; pH ([5]; aqueous solution at 100 g/L in terms of NeuAc potassium salt, listed as Example 5): 6.5
excellent solubility	extremely low				99.98	100.0	100.0	CC(=O)N[C@H]1[C@H]([C@H](O)[C@H](O)CO)O[C@](O)(C(=O)[O-])C[C@@H]1O.[Na+] [Crystal of sodium salt, NeuAc sodium salt anhydrate]		Rate of Weight Change ([1]; elapsed time 0 h, Table 3): 0.00%; Rate of Weight Change ([1]; elapsed time 3 h, Table 3): −0.04%; Rate of Weight Change ([1]; elapsed time 7 h, Table 3): −0.02%; Rate of Weight Change ([1]; elapsed time 24 h, Table 3): −0.04%; weight increase due to moisture absorption (in words) ([1]; listed as crystal of NeuAc sodium salt anhydrate): a weight increase was not recognized; pH ([5]; aqueous solution at 100 g/L in terms of NeuAc sodium salt, listed as Example 1): 6.74; pH ([5]; aqueous solution at 100 g/L in terms of NeuAc sodium salt, listed as Example 2): 6.8
		100.1	73.26	50.46	100.1	73.26	50.46	CC(=O)N[C@H]1[C@H]([C@H](O)[C@H](O)CO)OC(O)(C(=O)O)C[C@@H]1O (some centres unmarked) [Crystal of dihydrate, N-Acetylneuraminic acid, reference compound]	gradually discolored to dark brown	degree of solubility [6]: about 100 g/L
